ChEMBL document CHEMBL3784922, “D-Amino acid oxidase inhibitors based on the 5-hydroxy-1,2,4-triazin-6(1H)-one scaffold” (Bioorg Med Chem Lett, 2016)

How the values were obtained:
D-amino-acid oxidase = D-amino-acid oxidase (Homo sapiens, UniProt P14920); experiment: Inhibition of recombinant human DAAO assessed as oxidative deamination of D-serine in presence of molecular oxygen and FAD after 20 mins
[1] = Metabolic stability in mouse liver microsomes assessed as compound remaining after 60 mins by LC-MS/MS analysis in presence of NADPH; format: ADME; conditions: for Stability: microsomes, 1 h
[2] = Metabolic stability in mouse liver microsomes assessed as compound remaining after 60 mins by LC-MS/MS analysis in presence of UDPGA; format: ADME; conditions: for Stability: microsomes, 1 h
[3] = Plasma protein binding in CD-1 mouse at 30 mg/kg, po by ultrafiltration technique; format: ADME, organism-based; conditions: read-out: PPB (converted)
Mus musculus [4] = organism: Mus musculus; conditions: CD-1
[5] = Tmax in CD-1 mouse plasma by HPLC-MS analysis; format: ADME, organism-based
Mus musculus [6] = experiment: In-vivo inhibition of DAAO in CD-1 mouse assessed as increase in D-serine AUC (0 to 6 hrs) at 30 mg/kg, po relative to control; format: functional
Mus musculus [7] = experiment: In-vivo inhibition of DAAO in CD-1 mouse assessed as plasma clearance of D-serine at 30 mg/kg, po after 3 hrs; format: organism-based
Mus musculus [8] = experiment: AUC (0 to 6 hrs) in CD-1 mouse plasma at 30 mg/kg, po by HPLC-MS analysis; format: ADME, organism-based; design: time < 6 hr, dose 30 mg/kg, route oral; conditions: in vivo
Mus musculus [9] = experiment: In-vivo inhibition of DAAO in CD-1 mouse assessed as plasma clearance of D-serine at 30 mg/kg, po upto 3 hrs; format: organism-based
[10] = liver microsomes, read-out: Stability

Sequence of D-amino-acid oxidase (P14920 whole entry): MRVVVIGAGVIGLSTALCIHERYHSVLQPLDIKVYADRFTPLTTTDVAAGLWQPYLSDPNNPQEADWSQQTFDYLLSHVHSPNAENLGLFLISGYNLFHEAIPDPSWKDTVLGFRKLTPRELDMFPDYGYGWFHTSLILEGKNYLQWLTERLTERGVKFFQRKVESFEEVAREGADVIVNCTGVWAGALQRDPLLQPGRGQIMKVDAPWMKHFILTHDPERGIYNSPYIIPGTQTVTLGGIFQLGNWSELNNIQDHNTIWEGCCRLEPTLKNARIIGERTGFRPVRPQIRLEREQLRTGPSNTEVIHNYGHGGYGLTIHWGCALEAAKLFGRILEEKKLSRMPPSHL

Row | Structure (SMILES) | IC50 (D-amino-acid oxidase) [nM] | also measured
1 | O=c1[nH]nc(SCc2ccc(Cl)c(Cl)c2)nc1O | 50 | –
2 | O=c1[nH]nc(SCCc2ccccc2)nc1O | 40000 | –
3 | O=c1[nH]nc(SCC2CCCCC2)nc1O | 600 | –
4 | O=c1[nH]nc(SCc2ccc(I)cc2)nc1O | 50 | –
5 | O=c1[nH]nc(Cc2ccccc2)nc1O | 70 | –
6 | O=c1[nH]nc(CCCc2ccccc2)nc1O | 4000 | –
7 | O=c1[nH]nc(SCc2noc3ccccc23)nc1O | 200 | –
8 | O=c1[nH]nc(SCc2ccc(-c3ccccc3)cc2)nc1O | 90 | –
9 | O=c1[nH]nc(CCc2ccccc2)nc1O | 60 | Stability [1]: 79%; Stability [2]: 98%; fraction unbound [3]: 0.26; AUC (Mus musculus [4]): 74200 ng·h/mL; Tmax [5]: 30 min; fold change (FC) (Mus musculus [6]): 1.7; inhibition (INH) (Mus musculus [7]): Not Active; AUC (Mus musculus [8]): 8070 ng·h/mL; inhibition (INH) (Mus musculus [9]): Active
10 | O=c1[nH]nc(SCc2cccc(-c3ccccc3)c2)nc1O | 700 | –
11 | O=c1[nH]nc(SCc2ccccc2)nc1O | 100 | –
12 | CC(C)(C)c1ccc(CSc2n[nH]c(=O)c(O)n2)cc1 | 300 | –
13 | O=c1[nH]nc(SCc2ccc(Cl)cc2)nc1O | 30 | –
14 | O=c1[nH]nc(SCc2ccc3cc(F)ccc3c2)nc1O | – | Stability [1]: 91%; Stability [2]: 95%
15 | O=c1[nH]c(=O)n(Cc2cccc3ccccc23)nc1O | – | remaining at 1 h [1, 10]: > 99%; remaining at 1 h [2, 10]: > 99%
